PMC11640836, “Aminomethylmorpholino Nucleosides as Novel Inhibitors of PARP1 and PARP2: Experimental and Molecular Modeling Analyses of Their Selectivity and Mechanism of Action” (International Journal of Molecular Sciences, 2024)
Read-outs that look alike come from different tables or passages of the source. Each block holds one compound with its values, some of them ahead of it.

Tests used:
[1] = target: T1, PARP1 (Homo sapiens, UniProt P09874); assay: PARP1 autopoly(ADP-ribosyl)ation (autoPARylation) enzyme assay with [32P]NAD+; type: biochemical; conditions: for IC50: 0.3 mM [32P]NAD+, means ±SDs of three independent experiments, read-out: IC50, PARP1 activity in the autoPARylation reaction
T1 construct: made in house; host or cells: insect cells
T1 sequence (P09874 whole entry): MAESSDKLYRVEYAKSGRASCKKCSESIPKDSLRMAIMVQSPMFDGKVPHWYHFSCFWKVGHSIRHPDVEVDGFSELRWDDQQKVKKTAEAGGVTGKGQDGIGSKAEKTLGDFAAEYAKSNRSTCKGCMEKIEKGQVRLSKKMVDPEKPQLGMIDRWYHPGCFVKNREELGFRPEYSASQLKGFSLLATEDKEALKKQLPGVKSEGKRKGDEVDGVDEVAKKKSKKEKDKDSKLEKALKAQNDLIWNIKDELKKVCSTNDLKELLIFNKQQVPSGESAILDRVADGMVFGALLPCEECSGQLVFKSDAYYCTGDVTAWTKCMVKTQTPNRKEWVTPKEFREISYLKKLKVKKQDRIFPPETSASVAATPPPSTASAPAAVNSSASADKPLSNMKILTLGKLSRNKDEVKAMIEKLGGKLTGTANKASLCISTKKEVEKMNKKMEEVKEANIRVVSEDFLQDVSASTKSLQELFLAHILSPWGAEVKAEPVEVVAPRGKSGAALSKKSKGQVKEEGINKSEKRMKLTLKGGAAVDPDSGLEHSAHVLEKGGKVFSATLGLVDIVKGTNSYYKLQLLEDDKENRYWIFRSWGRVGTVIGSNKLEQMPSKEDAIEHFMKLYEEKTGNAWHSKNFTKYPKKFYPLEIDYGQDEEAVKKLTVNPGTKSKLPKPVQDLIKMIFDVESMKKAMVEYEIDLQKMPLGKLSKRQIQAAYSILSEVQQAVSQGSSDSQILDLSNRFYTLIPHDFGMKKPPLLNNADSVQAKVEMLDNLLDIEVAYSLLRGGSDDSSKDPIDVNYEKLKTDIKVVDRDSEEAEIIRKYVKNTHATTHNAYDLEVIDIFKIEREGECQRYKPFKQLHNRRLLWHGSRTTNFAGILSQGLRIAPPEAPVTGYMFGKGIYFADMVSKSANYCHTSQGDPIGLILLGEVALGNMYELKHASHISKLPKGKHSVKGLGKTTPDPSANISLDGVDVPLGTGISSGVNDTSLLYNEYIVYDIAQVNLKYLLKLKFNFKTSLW
Method: (§1) Human recombinant poly(ADP-ribose) polymerase 1 (PARP1) and murine poly(ADP-ribose) polymerase 2 (PARP2) were expressed in insect cells and purified as previously described. Radioactively labeled [^32P]NAD^+ was synthesized from [α-^32P]ATP, according to the previously developed method. The reaction of autopoly(ADP-ribosyl)ation was performed as follows. For PARP1, the reaction mixture contained 50 mM of Tris-HCl, a pH of 8.0, 10 mM of MgCl2, 150 mM of NaCl, 7 mM of β-mercaptoethanol, 2 A260/mL of activated DNA, 0.3 mM of [^32P]NAD^+, and 1 of the tested compounds. The reaction was initiated by adding PARP1 up to 200 nM, and the reaction mixtures were incubated at 37 °C for 2 min. For PARP2, the reaction mixture contained 50 mM of Tris-HCl, a pH of 8.0, 3 mM of spermine, 150 mM of NaCl, 7 mM of β-mercaptoethanol, 2 A260/mL of activated DNA, 0.6 mM of [^32P]NAD^+, and 1 of the tested compounds. The reaction was initiated by adding PARP2 up to 800 nM, and the reaction mixtures were incubated at 37 °C for 5 min. The tested compounds were added at six fixed concentrations, specified for each of them. The reaction was stopped by dropping 10 µL aliquots onto Whatman 1 filter papers soaked in 5% trichloroacetic acid (TCA). The filters were washed 4 times with 150 mL of 5% TCA and dried in the air after the removal of TCA with 90% ethanol. The introduction of radioactivity into the reaction product was quantified using a Typhoon FLA 9500 imager (GE Healthcare, Chicago, IL, USA). The half-maximal inhibitory concentration (IC50) values were determined using a six-point concentration response curve in three independent experiments.

[2] = target: T2, PARP2 (Mus musculus, UniProt O88554); assay: PARP2 autopoly(ADP-ribosyl)ation (autoPARylation) enzyme assay with [32P]NAD+; type: biochemical, murine; conditions: for remaining activity at 1000 µM: 5 min, 1 mM compound, autoPARylation reaction, read-out: Residual catalytic activity of PARP2 in the presence of a 1 mM compound; for IC50: 0.6 mM [32P]NAD+, means ±SDs of three independent experiments, read-out: IC50, PARP2 activity in the autoPARylation reaction
T2 construct: made in house; host or cells: insect cells
T2 sequence (O88554 whole entry): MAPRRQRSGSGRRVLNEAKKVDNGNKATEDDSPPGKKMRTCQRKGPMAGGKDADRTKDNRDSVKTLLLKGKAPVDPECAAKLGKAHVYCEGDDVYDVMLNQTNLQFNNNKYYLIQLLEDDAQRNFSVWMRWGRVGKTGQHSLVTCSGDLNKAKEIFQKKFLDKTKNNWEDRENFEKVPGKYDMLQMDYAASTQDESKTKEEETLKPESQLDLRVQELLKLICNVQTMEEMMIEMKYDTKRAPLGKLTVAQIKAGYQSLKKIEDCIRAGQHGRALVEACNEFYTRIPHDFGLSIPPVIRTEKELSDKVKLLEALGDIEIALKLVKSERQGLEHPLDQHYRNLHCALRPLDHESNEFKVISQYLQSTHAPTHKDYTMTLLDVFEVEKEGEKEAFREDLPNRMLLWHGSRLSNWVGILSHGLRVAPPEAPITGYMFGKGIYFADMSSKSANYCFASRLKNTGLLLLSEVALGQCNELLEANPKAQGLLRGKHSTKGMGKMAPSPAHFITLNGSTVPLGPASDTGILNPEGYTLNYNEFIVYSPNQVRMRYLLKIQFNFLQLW
Method: as §1

[3] = tested on: PARP1; conditions: cited from earlier work
[4] = tested on: PARP2; conditions: cited from earlier work
[5] = tested on: HeLa cell line (cervical cancer); assay: Cell culture cytotoxicity assay (EZ4U/MTT), compounds alone and combined with hydrogen peroxide; conditions: for Effect (H2O2 + PARP inhibitor combo): Hela
Method: The cytotoxicity of the compounds and their combinations with a DNA damaging agent were examined against human cells from the HeLa cell line (cervical cancer) using an EZ4U/MTT colorimetric test (Biomedica, Vienna, Austria). […] The cells were grown in 96-well plates in DMEM medium (Gibco, Thermo Fisher Scientific, Waltham, MA, USA), with 1x GlutaMAX (Gibco, Thermo Fisher Scientific, Waltham, MA, USA), 50 IU/mL penicillin, 50 μg/mL streptomycin (MP Biome-dicals, Santa Ana, CA, USA), and in the presence of 10% fetal bovine serum (Biolot, Saint Petersburg, Russia) in a 5% CO2 atmosphere. After the formation of a 30–50% monolayer, the tested compounds were added to the medium to final concentrations specified in Figure 2 and Figure S4, and the cell culture was monitored for 3 days. […] The combination index (CI) values were calculated using CompuSyn software version 1.0.

[6] = target: T1, PARP1; assay: Steady-state kinetic analysis of the PARP1 enzymatic reaction; type: biochemical; conditions: for Type of inhibition: Vmax decreased, KM increased
Method: The four efficient inhibitors of PARP1 (compounds 8, 12, 13, and 14) were further examined by detailed kinetic experiments to determine the type of inhibition and the inhibition constants. […] The kinetics experiments of the PARylation reaction were performed at varied concentrations of the NAD^+ substrate and three–four different fixed concentrations of the inhibitor. The kinetic parameters of the reaction (Vmax and KM) were calculated by fitting the Michaelis–Menten equation to the kinetic data. The type of inhibition was determined by analyzing the dependences of Vmax and KM on the concentration of the inhibitor in linearizing coordinates (Figure S3). All the compounds had decreased Vmax and increased KM values as the inhibitor concentration increased (panels A−E), indicating a mixed type of inhibition, which was further evidenced by the double reciprocal plots of kinetic data (panel F). From these experiments, the inhibition constants reflecting the affinity of inhibitors to the NAD^+ binding pocket of free enzymes were determined (Table 2).
To determine the apparent maximum rate of enzymatic reaction (Vmax), Michaelis constant (KM), and possible inhibition mechanism, steady-state kinetic experiments were performed at […] fixed concentrations of the substrate, in the absence and presence of different fixed concentrations of the inhibitor. The standard reaction mixtures (10 μL) contained 100 μM, 300 μM, 500 μM, 1 mM, or 2 mM NAD^+; a tested PARP1/PARP2 inhibitor specified for each compound (Figure S3); the recombinant human enzyme PARP1 (200 nM) or murine PARP2 (800 nM); and reaction buffer components (specified in the previous subsection). The reaction was performed as described in the previous subsection. The raw data (kinetic curves) were obtained in three independent experiments and statistically processed with OriginPro 8.6.0 software. […]
F) Graphical representation in double reciprocal plots. The inhibitor concentrations (µM) are indicated right to each panel.
Figure S3. Graphical representation of inhibition type determination for PARP1 and PARP2 with selected compounds.
The Ki and Ki(2) values presented in Table 2 in the main text and Table S1 were calculated using the equations:
Ki = Ci⁄ Ki (2) = CiV Vmax ∗ൗ−1
ቂ(Vmax Km )൘ቃ(Vmax ∗ Km ∗)⁄ −1 where Vmax (Vmax*) – maximal reaction velocity in th e absence (presence) of inhibitor; Km (Km*) – Michaelis constant in the absence (presence) of inhibitor; Ci – the inhibitor concentration.
(also on this page, place not known: Ci )⁄ (Vmax ∗ )⁄൘ቃ − Ki(2) Ci V ∗ൗ− 1 the Vmax KM 3000 0 1 0 250 [ 32 P]ADP-ribose, counts x 10 -3 NAD + ,)
(1 picture or pasted object on this page, not shown here)

[7] = target: T3, PARP2 (supplemented with HPF1 or not) (Mus musculus, UniProt O88554); assay: PARP2 inhibition in the absence and presence of HPF1 (automodification, SDS-PAGE); type: biochemical, murine; conditions: 500 nM PARP2, 1 µM HPF1
T3 construct: made in house; host or cells: insect cells (PARP2)
T3 sequence (O88554 whole entry): as above
Method: PARP1/PARP2 autopoly(ADP-ribosyl)ation was performed in a standard 20 μL reaction mixture containing 50 mM of Tris-HCl, a pH of 8.0, 100 mM of NaCl, 10 mM of MgCl2, 1 mM of DTT, 10 µM of [^32P]NAD^+, 1 µM of gap-DNA (a 32-mer duplex with a medially located 1-nucleotide gap), 500 nM of PARP1/PARP2 (supplemented with 1 µM of HPF1 or not), and an inhibitor of interest at concentrations specified in Figure 4 and Figure S7. The reaction was initiated by adding a mixture of [^32P]NAD^+ and DNA to a protein-inhibitor mixture pre-assembled on ice. After incubating the mixtures at 37 °C for the indicated time periods, the reactions were terminated by the addition of an SDS-PAGE sample buffer and heating for 2 min at 90 °C. The reaction products were analyzed using 10% SDS-PAGE with the subsequent phosphor imaging of a Coomassie brilliant blue stained gel. Protein bands labeled with [^32P]ADP-ribose were quantified using Quantity One 4.6.7 Basic software. The residual activity (%) was determined as the level of PARP automodification in the presence of an inhibitor normalized to the respective level in the control sample containing no inhibitor.

[8] = tested on: PARP1; assay: fluorescence anisotropy; conditions: 400 nM olaparib; 50 mM NaCl, 50 mM Tris-HCl pH 8.0, 4 mM DTT; 25 nM FAM-DNA, 20-200 nM PARP1 or 20-800 nM PARP2; mixed on ice, 10 min at room temperature
[9] = tested on: PARP2; assay: fluorescence anisotropy; conditions: 800 nM olaparib; 50 mM NaCl, 50 mM Tris-HCl pH 8.0, 4 mM DTT; 25 nM FAM-DNA, 20-200 nM PARP1 or 20-800 nM PARP2; mixed on ice, 10 min at room temperature
[10] = mixed-type inhibition, read-out: Ki (affinity for the free enzyme)
[11] = read-out: Ki(2) (affinity for the enzyme complex with NAD+ substrate)

- Residual catalytic activity of PARP1 in the presence of a 1 mM compound ([1]; autoPARylation reaction): >30%
- remaining activity at 1000 µM [2]: > 30%
Compound: NC[C@@H]1CN(CC(=O)O)C[C@H](n2cnc3c(N)ncnc32)O1 [Compound 1]

- IC50 [1]: 60 ± 14 µM
- IC50 [2]: 100 ± 12 µM
Compound: Cc1cn([C@H]2CN(CC(=O)O)C[C@@H](CN)O2)c(=O)[nH]c1=O [Compound 2]

- Residual catalytic activity of PARP1 in the presence of a 1 mM compound ([1]; autoPARylation reaction): >30%
- remaining activity at 1000 µM [2]: > 30%
Compound: NC[C@@H]1CN(CC(=O)O)C[C@H](n2cnc3c(=O)[nH]c(N)nc32)O1 [Compound 3]

- Residual catalytic activity of PARP1 in the presence of a 1 mM compound ([1]; autoPARylation reaction): >30%
- remaining activity at 1000 µM [2]: > 30%
Compound: NC[C@@H]1CN(CC(=O)O)C[C@H](n2ccc(N)nc2=O)O1 [Compound 4]

Compound: O=c1[nH]c(=O)n([C@@H]2O[C@H](CO)[C@@H](O)[C@H]2O)cc1I [Compound 5-I-Urd]
- IC50 [3]: 49 µM
- IC50 [4]: 27 µM

- Residual catalytic activity of PARP1 in the presence of a 1 mM compound ([1]; autoPARylation reaction): >30%
- remaining activity at 1000 µM [2]: > 30%
Compound: NC[C@@H]1CN(CC(=O)O)C[C@H](n2ccc(=O)[nH]c2=O)O1 [Compound 5]

- IC50 [1]: 70 ± 12 µM
- IC50 [2]: 142 ± 6 µM
Compound: NC[C@@H]1CN(CC(=O)O)C[C@H](n2cc(I)c(=O)[nH]c2=O)O1 [Compound 6, 2′-aminomethylmorpholino glycine 5-I-uracyl nucleoside]

Compound: NC[C@@H]1CNC[C@H](n2cnc3c(N)ncnc32)O1 [Compound 7]
- Residual catalytic activity of PARP1 in the presence of a 1 mM compound ([1]; autoPARylation reaction): >30%
- remaining activity at 1000 µM [2]: > 30%

Compound: NC[C@@H]1CNC[C@H](n2cnc3c(=O)[nH]c(N)nc32)O1 [Compound 9]
- Residual catalytic activity of PARP1 in the presence of a 1 mM compound ([1]; autoPARylation reaction): >30%
- remaining activity at 1000 µM [2]: > 30%

Compound: NC[C@@H]1CNC[C@H](n2ccc(N)nc2=O)O1 [Compound 10]
- Residual catalytic activity of PARP1 in the presence of a 1 mM compound ([1]; autoPARylation reaction): >30%
- remaining activity at 1000 µM [2]: > 30%
- Effect (H2O2 + PARP inhibitor combo) ([5]; H2O2 30 μM + inhibitor 100 μM): 0.29
- Effect (H2O2 + PARP inhibitor combo) ([5]; H2O2 30 μM + inhibitor 800 μM): 0.23
- Effect (H2O2 + PARP inhibitor combo) ([5]; H2O2 50 μM + inhibitor 100 μM): 0.32
- Effect (H2O2 + PARP inhibitor combo) ([5]; H2O2 50 μM + inhibitor 800 μM): 0.26
- Effect (H2O2 + PARP inhibitor combo) ([5]; H2O2 90 μM + inhibitor 100 μM): 0.45
- Effect (H2O2 + PARP inhibitor combo) ([5]; H2O2 90 μM + inhibitor 800 μM): 0.51
- Effect (H2O2 + PARP inhibitor combo) ([5]; H2O2 150 μM + inhibitor 100 μM): 0.66
- Effect (H2O2 + PARP inhibitor combo) ([5]; H2O2 150 μM + inhibitor 800 μM): 0.64
- Effect (H2O2 + PARP inhibitor combo) ([5]; H2O2 250 μM + inhibitor 100 μM): 0.78
- Effect (H2O2 + PARP inhibitor combo) ([5]; H2O2 250 μM + inhibitor 800 μM): 0.87

Compound: NC[C@@H]1CNC[C@H](n2ccc(=O)[nH]c2=O)O1 [Compound 11]
- IC50 [1]: 420 ± 66 µM
- remaining activity at 1000 µM [2]: > 30%

Compound: NC[C@@H]1CNC[C@H](n2cc(Cl)c(=O)[nH]c2=O)O1 [Compound 12, aminomethylmorpholino 5-Cl-uracil nucleoside]
- IC50 [1]: 45 ± 5 µM
- Selectivity for PARP1 over PARP2 (IC50 comparison) ([1]; autoPARylation reaction): highly selective PARP1 inhibitor
- remaining activity at 1000 µM [2]: > 30%
- Type of inhibition [6]: mixed-type inhibition
- Ki [6, 10]: 79 ± 6 µM
- Ki [6, 11]: 300 ± 60 µM

Compound: NC[C@@H]1CNC[C@H](n2cc(Br)c(=O)[nH]c2=O)O1 [Compound 13]
- IC50 [1]: 30 ± 3 µM
- IC50 [2]: 250 ± 37 µM
- Type of inhibition [6]: mixed-type inhibition
- Ki [6, 10]: 25 ± 4 µM
- Ki [6, 11]: 130 ± 30 µM
- Impact of HPF1 on the inhibition potency against PARP2 [7]: no impact of HPF1

Compound: O=C(c1cc(Cc2n[nH]c(=O)c3ccccc23)ccc1F)N1CCN(C(=O)C2CC2)CC1 [olaparib, reference compound]
- Effect (H2O2 + PARP inhibitor combo) ([5]; H2O2 30 μM + inhibitor 30 μM): 0.32
- Effect (H2O2 + PARP inhibitor combo) ([5]; H2O2 30 μM + inhibitor 50 μM): 0.42
- Effect (H2O2 + PARP inhibitor combo) ([5]; H2O2 50 μM + inhibitor 30 μM): 0.51
- Effect (H2O2 + PARP inhibitor combo) ([5]; H2O2 90 μM + inhibitor 30 μM): 0.6
- Effect (H2O2 + PARP inhibitor combo) ([5]; H2O2 90 μM + inhibitor 50 μM): 0.7
- Effect (H2O2 + PARP inhibitor combo) ([5]; H2O2 150 μM + inhibitor 30 μM): 0.85
- Effect (H2O2 + PARP inhibitor combo) ([5]; H2O2 150 μM + inhibitor 50 μM): 0.9
- Effect (H2O2 + PARP inhibitor combo) ([5]; H2O2 250 μM + inhibitor 30 μM): 0.96
- Effect (H2O2 + PARP inhibitor combo) ([5]; H2O2 250 μM + inhibitor 50 μM): 0.98
- Effect on the cytotoxicity of hydrogen peroxide ([5]; Hela cells, MTT test, H2O2 30 to 250 μM): enhanced the cytotoxic effects of hydrogen peroxide

Compound: Cc1cn([C@@H]2O[C@H](CO)[C@@H](O)[C@H]2O)c(=O)[nH]c1=O [rThd]
- IC50 [3]: 277 µM
- IC50 [4]: 374 µM

Compound: FAM gap-DNA (32-mer duplex, 1-nt gap)
- binding signal (fold increase of EC50 vs no inhibitor) [8]: 1.8
- binding signal (fold increase of EC50 vs no inhibitor) [9]: 1.6
